From patent US9358276B2, “Methods of diagnosing and treating small intestinal bacterial overgrowth (SIBO) and SIBO-related conditions” (Cedars-Sinai Medical Center, priority 1999, dated 2016)

How the values were obtained:
Type in all cases: in vivo, human
SIBO [1] = assay: Case: impaired memory/mentation with SIBO, neomycin; settings: one patient
Excerpt: The patient was a person with a history of chronic intestinal complaints over several years. They experienced altered bowel habits with alternating diarrhea and constipation with bloating, gas, distension and abdominal pain. Also, they had been diagnosed by several psychiatrists as having psychiatric problems due to decreased mentation from mild senility, and they contemplated psychiatric hospitalization.
SIBO was detected in this patient by LBHT.

SIBO [2] = assay: Neomycin treatment of subjects with IBS and SIBO (LBHT, VAS)
Experimental: Subjects were tested after an overnight fast. At time zero, each subject swallowed 15 ml of Chronulac formula, delivering 10 g of lactulose; every 5-20 min thereafter, for 2-4 hours, a 50 cm^3 end-expiratory breath sample was taken with an airtight sampling bag. Each breath sample was then analyzed for hydrogen content with a gas chromatograph (Quintron Model DP, Quintron Instrument Co., Division of E.F. Brewer Co, Menomonee Falls, Wis. 53051), standardized using a QuinGas standard as instructed by the manufacturer. Hydrogen peaks were plotted before and after an antimicrobial treatment regimen for comparison. The normal range for the second hydrogen peak was 0 to 20 ppm.
The two hundred-two (202) human subjects were assessed for SIBO with LBHT. Of the 202 subjects in the database, 95 claimed to have been given a diagnosis of IBS. […] After these 22 subjects were excluded, 73 subjects remained.
Of the 124, 92 (74%) were positive for SIBO. […] Therefore, the incidence of SIBO among the 110 untreated subjects was 92 (84%), showing a strong association between a suspected diagnosis of IBS and the presence of SIBO. After neomycin treatment (500 mg twice daily for ten days), 23 of these 92 returned for follow-up testing. On a visual analog scores (VAS), subjects were asked to rate their degree of post-treatment improvement. These 23 subjects reported a 60±31% improvement, although 17 had only partial eradication of SIBO, based on their LBHT results. (FIG. 1).
There was a likely selection bias in the database due to the fact that subjects were referred for LBHT, because their physicians suspected they had SIBO. To correct for this bias, a pilot study was also conducted looking at the incidence of bacterial overgrowth in patients with IBS. […] Eight human subjects with a suspected diagnosis of IBS, based on the Rome criteria, were tested for SIBO, using LBHT as described in Example 2. […] Six of the 7 subjects testing positive for SIBO returned approximately 10 days after completion of a 10 day course of neomycin as described above. […] The six subjects reported an average improvement in their IBS symptoms of 65±28% (Range: 20-100%) on VAS scoring.

SIBO [3] = assay: Case: multiple sclerosis with SIBO, neomycin; settings: one patient
Excerpt: A suspected diagnosis of multiple sclerosis had been made by a neurologist was based on various neuropathies of the peripheral nervous system, including numbness, tingling, and weakness in the lower extremities, but this subject also had associated bloating, gas, distension and alteration in bowel habits. The subject also complained of a significant fatigue and nausea. The subject underwent LBHT, which detected SIBO. […] They no longer had numbness or tingling in the hands or feet and was functioning quite well.

SIBO [4] = assay: Neomycin/antibiotic treatment of subjects with fibromyalgia and SIBO
Excerpt: Of these 37, 28 tested positive for SIBO.
These ten subjects reported a 63±19% overall improvement in their symptoms by VAS scoring. FIG. 3 compares the VAS scores for various symptoms reported by the subjects with a suspected diagnosis of fibromyalgia before and after neomycin treatment. Symptoms included bloating, gas, diarrhea, joint pain and fatigue to treatment. Subjects were asked to identify the symptom most improved. Five subjects reported that pain was the most improved; three subjects reported that the level of fatigue was most improved, and two others reported that their abdominal complaints improved the most. There was a negative correlation between the degree of improvement in the VAS scoring and the amount of residual hydrogen peak seen in LBHT. (Pearson=−0.689, p=0.02; FIG. 4).
Subsequently, forty-six human subjects with FM (ACR criteria) entered a double blind randomized placebo controlled trial. Each subject underwent LBHT, a tender point examination and completed a questionnaire at the initial (baseline) and at every subsequent visit. Subjects were randomized to receive neomycin (500 mg twice daily in liquid form) or a matched placebo, for 10 days. After completion of this treatment, subjects with persistent SIBO received antibiotics (open label) until at least partially eradication was confirmed by LBHT. […] Six out of 20 patients (30%) in the neomycin group achieved complete […] eradication in the blinded arm. […] (Initial data in Table 1a).

neomycin
quality of life (SIBO [1]): dramatic improvement
eradication of SIBO condition (SIBO [1]; 500 mg twice a day for ten days): completely eradicated
degree of post-treatment improvement (VAS) (SIBO [2]; 23 IBS subjects with SIBO, 500 mg twice daily for ten days): 60±31%
subjects with only partial eradication of SIBO (LBHT) (SIBO [2]; of the 23 returning subjects): 17
average improvement in IBS symptoms on VAS scoring (SIBO [2]; pilot study, six subjects): 65±28%
post-treatment breath hydrogen peaks (SIBO [2]; pilot study, six subjects): 0-20 ppm
range of improvement in IBS symptoms on VAS scoring (SIBO [2]; pilot study, six subjects): 20-100%
eradication of SIBO (LBHT) (SIBO [2]; pilot study, six subjects, 10 day course): completely eradicated
time to relapse of symptoms after initial response (SIBO [3]): 6-8 weeks
nausea, fatigue, bloating, gas distension and alteration in bowel habits (SIBO [3]; first treatment): complete resolution
neuropathies (SIBO [3]; first treatment): dramatic improvement and resolution
symptoms upon re-treatment (SIBO [3]; re-treatment 500 mg twice daily for 10 days): complete resolution of their symptoms
eradication of bacterial overgrowth (SIBO [3]; 500 mg twice daily for 10 days): at least partially eradicated
patients achieving complete eradication of SIBO in the blinded arm (SIBO [4]; six out of 20, 500 mg twice daily liquid, 10 days): 30%
eradication of SIBO (post-treatment LBHT) (SIBO [4]; ten fibromyalgia subjects): at least partially eradicated
overall improvement in symptoms by VAS scoring (SIBO [4]; ten fibromyalgia subjects, 500 mg twice daily, 10-day course): 63±19%
